Assays:
[1] = target: Growth hormone secretagogue receptor type 1 (Homo sapiens, UniProt Q92847)
[2] = target: T1, Alpha-2A adrenergic receptor (Homo sapiens, UniProt P08913); type: functional, cell-based
T1 sequence (P08913 whole entry): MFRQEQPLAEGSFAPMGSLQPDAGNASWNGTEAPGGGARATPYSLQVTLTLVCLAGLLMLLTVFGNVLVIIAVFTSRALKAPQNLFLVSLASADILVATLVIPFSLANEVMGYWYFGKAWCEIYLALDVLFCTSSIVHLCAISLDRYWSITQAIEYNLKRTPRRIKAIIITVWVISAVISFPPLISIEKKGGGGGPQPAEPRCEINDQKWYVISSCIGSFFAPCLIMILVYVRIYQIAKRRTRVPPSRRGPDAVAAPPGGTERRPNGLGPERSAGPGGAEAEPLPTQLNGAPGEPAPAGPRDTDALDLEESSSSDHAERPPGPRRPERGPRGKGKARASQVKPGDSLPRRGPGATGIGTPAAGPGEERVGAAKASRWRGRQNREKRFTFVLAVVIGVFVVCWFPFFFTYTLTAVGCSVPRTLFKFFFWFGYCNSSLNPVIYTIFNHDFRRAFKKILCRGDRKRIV

[3] = target: Motilin receptor (Homo sapiens, UniProt O43193)
Chain of Motilin receptor (O43193 whole entry): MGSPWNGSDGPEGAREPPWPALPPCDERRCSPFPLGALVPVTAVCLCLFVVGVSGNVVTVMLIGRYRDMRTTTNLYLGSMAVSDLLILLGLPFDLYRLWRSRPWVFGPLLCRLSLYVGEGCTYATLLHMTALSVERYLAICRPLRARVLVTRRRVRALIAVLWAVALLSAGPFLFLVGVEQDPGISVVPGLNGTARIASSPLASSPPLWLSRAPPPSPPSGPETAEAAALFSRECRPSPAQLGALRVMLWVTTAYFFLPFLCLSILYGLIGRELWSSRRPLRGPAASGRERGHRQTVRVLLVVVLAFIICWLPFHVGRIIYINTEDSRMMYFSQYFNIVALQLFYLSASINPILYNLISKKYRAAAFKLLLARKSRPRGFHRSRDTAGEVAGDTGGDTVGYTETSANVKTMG

[4] = target: T2, Muscarinic acetylcholine receptor M2 (Homo sapiens, UniProt P08172); type: functional, cell-based
T2 sequence (P08172 whole entry): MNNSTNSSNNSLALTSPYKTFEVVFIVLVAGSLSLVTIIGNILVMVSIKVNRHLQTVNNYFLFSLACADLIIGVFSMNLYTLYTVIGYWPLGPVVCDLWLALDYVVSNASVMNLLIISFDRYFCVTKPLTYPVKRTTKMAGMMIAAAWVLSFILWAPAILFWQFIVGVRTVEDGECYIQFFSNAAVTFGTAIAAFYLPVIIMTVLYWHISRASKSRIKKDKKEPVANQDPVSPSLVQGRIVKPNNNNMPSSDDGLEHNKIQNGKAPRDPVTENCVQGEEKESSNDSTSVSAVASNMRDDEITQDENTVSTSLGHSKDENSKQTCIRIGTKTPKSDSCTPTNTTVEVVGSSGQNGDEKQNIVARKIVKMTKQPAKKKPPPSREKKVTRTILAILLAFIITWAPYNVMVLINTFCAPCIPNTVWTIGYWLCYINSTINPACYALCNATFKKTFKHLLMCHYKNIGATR

[5] = target: Delta-type opioid receptor (Homo sapiens, UniProt P41143)
Chain of Delta-type opioid receptor (P41143 whole entry): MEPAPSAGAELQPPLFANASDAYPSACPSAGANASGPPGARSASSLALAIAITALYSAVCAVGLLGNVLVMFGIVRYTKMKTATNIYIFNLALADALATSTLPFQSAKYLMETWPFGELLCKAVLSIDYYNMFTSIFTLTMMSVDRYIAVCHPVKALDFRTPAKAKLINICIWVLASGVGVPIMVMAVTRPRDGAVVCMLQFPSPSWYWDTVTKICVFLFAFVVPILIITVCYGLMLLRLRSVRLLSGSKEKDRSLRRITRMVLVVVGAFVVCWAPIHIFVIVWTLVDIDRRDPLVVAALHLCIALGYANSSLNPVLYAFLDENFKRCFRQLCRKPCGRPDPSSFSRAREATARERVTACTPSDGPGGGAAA

[6] = target: T3, Type-1 angiotensin II receptor (Homo sapiens, UniProt P30556)
T3 sequence (P30556 whole entry): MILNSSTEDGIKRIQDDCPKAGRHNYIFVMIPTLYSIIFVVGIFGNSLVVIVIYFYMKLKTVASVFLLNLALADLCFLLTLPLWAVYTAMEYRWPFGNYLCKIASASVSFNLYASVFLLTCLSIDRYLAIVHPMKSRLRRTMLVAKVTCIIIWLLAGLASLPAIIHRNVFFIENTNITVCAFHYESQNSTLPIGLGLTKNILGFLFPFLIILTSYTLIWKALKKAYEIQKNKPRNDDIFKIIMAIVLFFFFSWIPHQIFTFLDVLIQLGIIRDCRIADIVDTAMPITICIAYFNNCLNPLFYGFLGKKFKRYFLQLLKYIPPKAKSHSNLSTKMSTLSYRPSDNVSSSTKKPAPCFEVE

[7] = target: T4, 5-hydroxytryptamine receptor 1A (Homo sapiens, UniProt P08908); type: functional, cell-based
T4 sequence (P08908 whole entry): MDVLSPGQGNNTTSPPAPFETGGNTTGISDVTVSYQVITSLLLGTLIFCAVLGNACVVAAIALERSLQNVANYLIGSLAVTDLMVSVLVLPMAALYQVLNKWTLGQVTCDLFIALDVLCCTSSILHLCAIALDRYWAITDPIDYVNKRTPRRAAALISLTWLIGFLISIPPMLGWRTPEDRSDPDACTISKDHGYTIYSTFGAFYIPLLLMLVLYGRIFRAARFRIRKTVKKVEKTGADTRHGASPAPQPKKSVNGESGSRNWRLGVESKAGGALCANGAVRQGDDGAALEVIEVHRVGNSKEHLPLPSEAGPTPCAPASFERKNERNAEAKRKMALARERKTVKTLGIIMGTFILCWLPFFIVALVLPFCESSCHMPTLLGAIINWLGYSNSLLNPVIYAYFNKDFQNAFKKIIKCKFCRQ

[8] = target: T1, Alpha-2A adrenergic receptor; type: functional, cell-based; remark: listed apart in the source
[9] = target: T5, Amine oxidase [flavin-containing] A (Homo sapiens, UniProt P21397); type: functional
T5 sequence (P21397 whole entry): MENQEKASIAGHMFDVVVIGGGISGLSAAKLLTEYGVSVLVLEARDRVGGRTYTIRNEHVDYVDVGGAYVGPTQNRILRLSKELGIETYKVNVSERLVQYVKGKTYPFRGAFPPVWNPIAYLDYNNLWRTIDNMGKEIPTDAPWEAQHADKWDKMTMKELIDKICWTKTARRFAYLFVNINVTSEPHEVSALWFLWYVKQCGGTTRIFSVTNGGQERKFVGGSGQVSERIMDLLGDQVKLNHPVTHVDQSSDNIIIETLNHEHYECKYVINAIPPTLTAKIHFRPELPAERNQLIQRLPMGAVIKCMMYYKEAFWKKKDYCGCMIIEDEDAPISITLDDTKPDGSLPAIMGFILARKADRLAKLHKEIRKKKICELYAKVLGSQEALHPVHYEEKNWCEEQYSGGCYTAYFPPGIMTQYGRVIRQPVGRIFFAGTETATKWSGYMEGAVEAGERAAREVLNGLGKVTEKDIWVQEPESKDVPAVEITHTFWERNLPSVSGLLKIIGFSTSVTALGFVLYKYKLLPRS

[10] = target: 3',5'-cyclic-AMP phosphodiesterase 4D (Homo sapiens, UniProt Q08499); type: functional
Chain of 3',5'-cyclic-AMP phosphodiesterase 4D (Q08499 whole entry): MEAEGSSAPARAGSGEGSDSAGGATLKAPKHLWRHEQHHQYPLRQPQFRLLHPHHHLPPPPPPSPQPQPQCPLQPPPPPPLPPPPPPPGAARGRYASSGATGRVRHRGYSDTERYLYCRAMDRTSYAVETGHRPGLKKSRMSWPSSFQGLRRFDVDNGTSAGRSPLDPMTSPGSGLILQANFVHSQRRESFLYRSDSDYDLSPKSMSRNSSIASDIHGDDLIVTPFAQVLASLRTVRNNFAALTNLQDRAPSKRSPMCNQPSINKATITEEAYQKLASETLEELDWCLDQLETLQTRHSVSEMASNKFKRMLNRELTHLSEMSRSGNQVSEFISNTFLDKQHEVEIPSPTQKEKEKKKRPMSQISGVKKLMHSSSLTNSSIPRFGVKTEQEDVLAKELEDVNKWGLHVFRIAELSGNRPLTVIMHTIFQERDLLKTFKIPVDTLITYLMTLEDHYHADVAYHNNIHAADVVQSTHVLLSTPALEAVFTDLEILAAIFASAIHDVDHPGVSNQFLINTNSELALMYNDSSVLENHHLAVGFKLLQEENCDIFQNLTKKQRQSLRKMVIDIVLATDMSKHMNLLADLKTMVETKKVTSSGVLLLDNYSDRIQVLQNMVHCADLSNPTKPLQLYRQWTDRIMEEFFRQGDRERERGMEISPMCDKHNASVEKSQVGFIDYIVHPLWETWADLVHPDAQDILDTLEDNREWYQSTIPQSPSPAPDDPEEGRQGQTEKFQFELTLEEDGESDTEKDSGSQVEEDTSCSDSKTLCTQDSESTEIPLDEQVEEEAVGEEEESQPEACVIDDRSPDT

[11] = target: cGMP-inhibited 3',5'-cyclic phosphodiesterase 3A (Homo sapiens, UniProt Q14432); type: functional
Chain of cGMP-inhibited 3',5'-cyclic phosphodiesterase 3A (Q14432 whole entry): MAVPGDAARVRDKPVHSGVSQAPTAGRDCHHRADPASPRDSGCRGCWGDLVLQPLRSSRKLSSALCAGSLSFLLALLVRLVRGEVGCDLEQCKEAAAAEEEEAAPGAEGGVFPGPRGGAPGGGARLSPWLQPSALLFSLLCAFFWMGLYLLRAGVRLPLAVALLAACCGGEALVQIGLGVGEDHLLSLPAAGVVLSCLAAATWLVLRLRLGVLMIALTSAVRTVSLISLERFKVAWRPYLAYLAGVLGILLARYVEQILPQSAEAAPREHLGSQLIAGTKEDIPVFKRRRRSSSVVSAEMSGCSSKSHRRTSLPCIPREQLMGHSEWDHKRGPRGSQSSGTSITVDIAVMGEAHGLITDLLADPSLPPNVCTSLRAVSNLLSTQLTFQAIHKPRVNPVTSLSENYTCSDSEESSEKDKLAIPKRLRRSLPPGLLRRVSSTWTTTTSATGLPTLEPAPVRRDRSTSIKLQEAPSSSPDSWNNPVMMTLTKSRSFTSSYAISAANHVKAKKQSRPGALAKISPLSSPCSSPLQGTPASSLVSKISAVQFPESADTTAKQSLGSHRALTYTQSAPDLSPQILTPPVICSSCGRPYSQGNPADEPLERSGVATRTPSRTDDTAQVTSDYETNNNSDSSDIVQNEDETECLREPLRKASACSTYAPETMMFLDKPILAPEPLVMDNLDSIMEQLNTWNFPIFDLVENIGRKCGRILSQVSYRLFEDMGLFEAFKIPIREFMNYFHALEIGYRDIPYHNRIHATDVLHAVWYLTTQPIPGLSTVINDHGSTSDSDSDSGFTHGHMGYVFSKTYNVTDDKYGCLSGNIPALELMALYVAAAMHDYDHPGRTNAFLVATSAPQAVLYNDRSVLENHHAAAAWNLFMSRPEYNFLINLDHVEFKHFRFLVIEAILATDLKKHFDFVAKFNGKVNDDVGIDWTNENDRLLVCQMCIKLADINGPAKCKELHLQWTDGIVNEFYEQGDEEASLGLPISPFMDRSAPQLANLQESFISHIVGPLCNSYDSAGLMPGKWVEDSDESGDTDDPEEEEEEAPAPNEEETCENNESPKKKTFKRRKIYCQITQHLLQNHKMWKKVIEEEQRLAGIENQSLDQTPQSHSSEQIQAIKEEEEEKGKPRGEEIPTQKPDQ
Also: assay procedure not described here.

Chain of Growth hormone secretagogue receptor type 1 (Q92847 whole entry): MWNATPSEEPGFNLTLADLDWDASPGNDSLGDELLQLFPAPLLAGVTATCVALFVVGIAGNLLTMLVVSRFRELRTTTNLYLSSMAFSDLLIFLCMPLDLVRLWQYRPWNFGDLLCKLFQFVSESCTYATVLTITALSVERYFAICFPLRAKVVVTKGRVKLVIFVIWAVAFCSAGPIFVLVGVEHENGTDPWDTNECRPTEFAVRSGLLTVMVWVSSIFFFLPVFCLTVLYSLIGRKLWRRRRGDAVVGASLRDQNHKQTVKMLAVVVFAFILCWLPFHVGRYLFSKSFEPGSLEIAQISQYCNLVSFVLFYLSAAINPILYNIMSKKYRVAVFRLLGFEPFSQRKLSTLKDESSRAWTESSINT

| AC50 [1] [µM] | AC50 [2] [µM] | AC50 [3] [µM] | AC50 [4] [µM] | AC50 [5] [µM] | AC50 [6] [µM] | AC50 [7] [µM] | AC50 [8] [µM] | AC50 [9] [µM] | AC50 [10] [µM] | AC50 [11] [µM] | SMILES |
| --- | --- | --- | --- | --- | --- | --- | --- | --- | --- | --- | --- |
| > 30 | > 10 | > 10 | > 10 | > 30 | > 30 | > 10 | > 10 | > 10 | > 30 | > 30 | C[C@]12CCC(=O)C=C1CC[C@@H]1[C@@H]2[C@@H](O)C[C@@]2(C)[C@H]1CC[C@]2(O)C(=O)CO [HYDROCORTISONE] |
| > 30 | > 30 | > 30 | > 30 | > 30 | > 30 | > 30 | 6.8 | > 30 | > 30 | > 30 | COc1cc2nc(N(C)CCCNC(=O)C3CCCO3)nc(N)c2cc1OC (configuration not stated) [ALFUZOSIN] |
